Results on 21 compounds are retold here after publication PMC7587979 (Molecules, 2020).

Series [1] concerns CQ-resistant P. falciparum FcB1/Colombia strain. Put plainly: In vitro growth inhibition of P. falciparum ([3H]-hypoxanthine incorporation). The series is classed as cell-based, Plasmodium falciparum. The settings on record: for times more active than FSM: ratio of IC50 against P. falciparum FcB1 versus FSM; for fold more active in comparison to the diester compound 17: ratio of IC50 against P. falciparum FcB1 versus 17. Here is the method:
Specifically, IC50 (μM) values for the antiplasmodial activities were determined from four independent experiments as the mean values ± standard deviations. IC50 (μM) values for the cytotoxicity activities were determined from two independent experiments as the mean values ± standard deviations. IC50, SIs (ratio between IC50 (μM) of cytotoxicity/IC50 (μM) of the antiplasmodial activity), and XLogGP3 values for the FSM derivatives, hybrid, and conjugates are reported in Table 1.
The chloroquine-resistant FcB1/Colombia strain of Plasmodium falciparum was maintained in vitro on human erythrocytes in RPMI 1640 medium supplemented by 8% (v/v) heat-inactivated human serum, at 37 °C, under an atmosphere of 3% CO2, 6% O2, and 91% N2 [45]. In vitro drug susceptibility assays were measured by [^3H]-hypoxanthine incorporation. Drug stock solutions were prepared in DMSO. Compounds were serially diluted two-fold with 100 μL of culture medium in 96-well plates. Asynchronous parasite cultures (100 μL, 1% parasitaemia and 1% final hematocrite) were then added to each well and incubated for 24 h at 37 °C prior to the addition of 0.5μCi of [^3H]-hypoxanthine (GE Healthcare, France, 1 to 5Ci·mmol/mL) per well [42]. After a further incubation of 24 h, plates were frozen and thawed. Cell lysates were then collected onto fiberglass filters and counted in a liquid scintillation spectrometer. The growth inhibition for each drug concentration was determined by comparison of the radioactivity incorporated in the treated culture with that in the control culture maintained on the same plate. The IC50 value was obtained from the drug concentration–response curve and the results were expressed as the mean values ± standard deviations determined from several independent experiments. Chloroquine and artemisinin were used as antimalarial drug controls.

The test system of series [2] is human primary fibroblasts (cell line AB943). Put plainly: Cytotoxicity evaluation (resazurin) and selectivity index. The settings on record: for SI: SI = IC50 (AB943)/IC50 (P.f. FcB1); for cytotoxicity in words: judged from SI, AB943 fibroblasts. The series is classed as cell-based. How it is done: Moreover, their cytotoxicity was measured, as previously reported, upon the primary human fibroblast cell line AB943, which allowed the calculation of their selectivity index (SI).
Specifically, IC50 (μM) values for the antiplasmodial activities were determined from four independent experiments as the mean values ± standard deviations. IC50 (μM) values for the cytotoxicity activities were determined from two independent experiments as the mean values ± standard deviations.
Cytotoxicity evaluation was performed upon human primary fibroblasts (cell line AB943). Assays were realized in 96-well plates in DMEM + Glutamax without phenol red medium (Gibco) containing 25 mM HEPES, pH 7.3, 10% fetal calf serum under a 5% CO2 atmosphere, at 37 °C. After trypsin treatment, AB943 cells were seeded at 2000 cells per well in 100 µL. After 24 h of incubation, drugs diluted in culture medium were added (100 µL per well). Drug stock solutions were prepared in dimethyl sulfoxide (DMSO). The final DMSO concentration in the cultures remained below 1%. Control cultures were constituted of cultures treated with DMSO instead of drug. The cytotoxicity assay was based on the conversion of a redo-sensitive dye (resazurin) to a fluorescent product by viable cells. […] The percentage of inhibition of cell growth was calculated by comparing the fluorescence of cells maintained in the presence of drug to that in the absence of drug.

Details of series [3]: method as in PMID 10477522, PMID 17887769. The settings on record: in vitro and in a mouse model; cited from earlier work.
Setting [4] is: CQ-resistant P. falciparum FcB1/Colombia strain, mean ± SD of four independent experiments, read-out: IC50.

Values joined by “and” are separate entries in the source; they are usually repeats but may differ in a detail not shown here. Equal values may be shown once. Read-outs that look alike come from different tables or passages of the source. Where only a bound is given, the exact number is not on record here.

Take “Diethyl(3-(N-hydroxy-4-oxo-4-((4-(3-((3S,5aS,6R,8aS,9R,10R,12R)-3,6,9-trimethyldecahydro-12H-3,12-epoxy[1,2]dioxepino[4,3-i]isochromen-10-yl)propanamido)butyl)(3-(3-((3S,5aS,6R,8aS,9R,10R,12R)-3,6,9-trimethyldecahydro-12H-3,12-epoxy[1,2]dioxepino[4,3-i]isochromen-10-yl)propanamido)propyl)amino) butanamido)propyl)phosphonate [Compound 22]”: in series [1] (setting [4]), the IC50 stood at 360 ± 90 nM. Moreover, in series [1], the “times more active than FSM” value was 23–41. In addition, the SI in series [2] was 94 and 94.1.

The compound `CCOP(=O)(CCCN(O)C(=O)CCC(=O)N1CCNCC1)OCC` [Compound 33, 4-(4-((3-(Diethoxyphosphoryl)propyl)(hydroxy)amino)-4-oxobutanoyl)piperazin-1-ium 2,2,2-trifluoroacetate] displayed a 50% inhibitory concentration (IC50) in series [1] (Plasmodium falciparum, FCB1) greater than 100000 nM.

In series [1] (Plasmodium falciparum, FCB1), `CCOP(=O)(CCCN(O)C(=O)CC[C@H]1O[C@@H]2O[C@]3(C)CC[C@H]4[C@H](C)CC[C@@H]([C@H]1C)C24OO3)OCC` [Compound 21, Diethyl (3-(N-hydroxy-3-((3S,5aS,6R,8aS,9R,10R,12R)-3,6,9-trimethyldecahydro-12H-3, 12-epoxy[1,2]dioxepino[4,3-i]isochromen-10-yl)propanamido)propyl)phosphonate] registered an IC50 of 28000 ± 11600 nM.

The compound `CCOP(=O)(CCCN(O)C(=O)CCC(=O)N(O)CCCP(=O)(OCC)OCC)OCC` [Compound 18, Tetraethyl-((succinylbis(hydroxyazanediyl))bis (propane-3,1-diyl))bis(phosphonate)] yielded an IC50 in series [1] (Plasmodium falciparum, FCB1) greater than 100000 nM.

On to `CCOP(=O)(CCCN(O)C(=O)CCC(=O)NCc1ccccc1)OCC` [Compound 30, Diethyl (3-(4-(benzylamino)-N-hydroxy-4-oxobutanamido)propyl) phosphonate], for which, in series [1] (Plasmodium falciparum, FCB1), the concentration for half-maximal inhibition (IC50) was greater than 100000 nM.

In the case of “Diethyl(3-(4-(bis(4-(3-((3S,5aS,6R,8aS,9R,10R,12R)-3,6,9-trimethyldecahydro-12H-3,12-epoxy[1,2]dioxepino[4,3-i]isochromen-10-yl)propanamido)butyl)amino)-N-hydroxy-4-oxobutanamido)propyl)phosphonate [Compound 23]”, the concentration for half-maximal inhibition (IC50) in series [1] (setting [4]) is 650 ± 260 nM. In addition, the “times more active than FSM” value in series [1] was 23–41. The same compound gave an SI in series [2] of 34.

As for `CCOP(=O)(CCCNc1ccccc1N)OCC` [Compound 34, Diethyl (3-((2-aminophenyl)amino)propyl)phosphonate], the half-maximal inhibitory concentration (IC50) in series [1] (setting [4]) stood at 8200 ± 2700 nM. In series [2], the SI is listed as 3.7 and the cytotoxicity in words result is listed as “cytotoxic”.

As for `CCOP(=O)(CCCN(O)C(=O)CCC(=O)Nc1ccc(Cc2ccc(NC(=O)OC(C)(C)C)cc2)cc1)OCC` [Compound 29, Tert-butyl(4-(4-(4-((3-(diethoxyphosphoryl)propyl)(hydroxy)amino)-4-oxobutanamido)benzyl)phenyl) carbamate], half-maximal inhibition in series [1] (Plasmodium falciparum, FCB1) (IC50) required 22700 ± 1900 nM. In series [2], the SI was found to be 1.7 and the cytotoxicity in words entry was “cytotoxic”.

Turning to `C[C@@H]1CC[C@H]2[C@@H](C)C(=O)O[C@@H]3O[C@@]4(C)CC[C@@H]1[C@]32OO4` [ART, artemisinin, reference compound], the IC50 in series [1] (Plasmodium falciparum, CQ-resistant P. falciparum FcB1/Colombia strain, control drugs, unit (nM), read-out: IC50) turned out to be 55 ± 13.6 nM.

For the compound `CCOP(=O)(CCCN(O)C(C)=O)OCC` [Compound 17], the IC50 in series [1] (setting [4]) is greater than 100000 nM.

The compound `CCOP(=O)(CCCN(O)C(=O)CCC(=O)NCCNc1ccnc2cc(Cl)ccc12)OCC.O=C(O)C(F)(F)F` [Compound 20, 7-Chloro-N-(2-(4-((3-(diethoxyphosphoryl)propyl)(hydroxy)amino)-4oxobutanamido)ethyl)quinolin-4-aminium 2,2,2-trifluoroacetate] came in with a half-inhibitory concentration (IC50) in series [1] (Plasmodium falciparum, FCB1) of 4200 ± 900 nM. In series [1], the “fold more active in comparison to the diester compound 17” value is on record as 25–40 and the “times more active than FSM” value was 3.5–5.5. Besides, the SI in series [2] is reported as 23.7.

`CCOP(=O)(CCCN(O)C(=O)CCC(=O)N1CCN(c2ccnc3cc(Cl)ccc23)CC1)OCC` [Compound 19, Diethyl (3-(4-(4-(7-chloroquinolin-4-yl)piperazin-1-yl)-N-hydroxy-4-oxobutanamido)propyl) phosphonate] showed a concentration for half-maximal inhibition (IC50) in series [1] (Plasmodium falciparum, FCB1) of 2700 ± 500 nM. In addition, in series [1], the “fold more active in comparison to the diester compound 17” value is listed as 25–40 and the “times more active than FSM” value is given as 3.5–5.5. The SI in series [2] is on record as 23.9.

Regarding `CC(=O)N(O)CCCP(=O)(O)O` [FR900098, reference compound], inhibition in series [1] (Plasmodium falciparum, FCB1) was half-maximal at 7000 nM (IC50). The SI in series [2] is listed as greater than 14.2. Besides, the “activity relative to FSM” value in series [3] was “about twice as active as FSM”.

With `O=CN(O)CCCP(=O)(O)O` [FSM, fosmidomycin, reference compound], the “fold less active than FR900098” value in series [1] (P. falciparum FcB1) is on record as 2. The IC50 in series [1] (Plasmodium falciparum, CQ-resistant P. falciparum FcB1/Colombia strain, mean ± SD of four independent experiments, read-out: IC50) was found to be 15000 ± 1700 nM. In series [2], this compound showed an SI greater than 6.6.

In turn, `CCOP(=O)(CCCN(O)C(=O)CCC(=O)N1CCN(C)CC1)OCC` [Compound 32, Diethyl (3-(N-hydroxy-4-(4-methylpiperazin-1-yl)-4-oxobutanamido)propyl) phosphonate] yielded an IC50 in series [1] (Plasmodium falciparum, FCB1) greater than 100000 nM.

In series [1] (Plasmodium falciparum, FCB1), `CCOP(=O)(CCCN(O)C(=O)CCC(=O)Nc1ccccc1N)OCC` [Compound 27, Diethyl(3-(4-((2-aminophenyl)amino)-N-hydroxy-4-oxobutanamido)propyl) phosphonate] had an IC50 of 81000 ± 2800 nM.

The compound `CCN(CC)CCCC(C)Nc1ccnc2cc(Cl)ccc12` (stereo not drawn) [CQ, Chloroquine, reference compound] came in with a half-inhibitory concentration (IC50) in series [1] (Plasmodium falciparum, FCB1) of 72 ± 7.4 nM.

`CCOP(=O)(CCCN(O)C(=O)CCC(=O)NC(c1ccccc1)c1ccccc1)OCC` [Compound 31, Diethyl(3-(4-(benzhydrylamino)-N-hydroxy-4-oxobutanamido)propyl)phosphonate] showed an IC50 in series [1] (Plasmodium falciparum, FCB1) of 44200 ± 9500 nM.

The compound `Nc1ccccc1NCCCP(=O)(O)O` [Compound 35, (3-((2-Aminophenyl)amino)propyl)phosphonic acid] showed a half-maximal inhibitory concentration (IC50) in series [1] (Plasmodium falciparum, FCB1) greater than 100000 nM.

Consider `CCOP(=O)(CCCN(O)C(=O)CCC(=O)NNC(=O)OC(C)(C)C)OCC` [Compound 26, Tert-butyl 2-(4-((3-(diethoxyphosphoryl)propyl)(hydroxy)amino)-4-oxobutanoyl) hydrazine-1-carboxylate], for which the concentration for half-maximal inhibition (IC50) in series [1] (Plasmodium falciparum, FCB1) was found to be 86000 ± 1400 nM.

In the case of `CCOP(=O)(CCCN(O)C(=O)CCC(=O)N(Cc1ccccc1)Cc1ccccc1)OCC` [Compound 28, Diethyl (3-(4-(dibenzylamino)-N-hydroxy-4-oxobutanamido)propyl)phosphonate], it took 38700 ± 10000 nM to reach half-maximal inhibition in series [1] (Plasmodium falciparum, FCB1) (IC50).
